Laboratory results published in PubChem BioAssay (NCI).
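Results reflect a 48-hour exposure of cells in 96-well plates to compound at five concentrations. GI50 marks 50% less growth. TGI: total growth inhibition.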

Assays:
Assay in all cases: inhibition of tumour cell growth, NCI panel, 48 h
ACHN renal = tested on: ACHN renal
SK-OV-3 ovarian = tested on: SK-OV-3 ovarian
OVCAR-8 ovarian = tested on: OVCAR-8 ovarian
SK-MEL-5 melanoma = tested on: SK-MEL-5 melanoma
MDA-MB-468 breast = tested on: MDA-MB-468 breast
OVCAR-4 ovarian = tested on: OVCAR-4 ovarian
KM12 colon = tested on: KM12 colon
MDA-MB-231 breast = tested on: MDA-MB-231 breast
SK-MEL-28 melanoma = tested on: SK-MEL-28 melanoma
IGROV1 ovarian = tested on: IGROV1 ovarian
SK-MEL-2 melanoma = tested on: SK-MEL-2 melanoma
SW-620 colon = tested on: SW-620 colon
COLO 205 colon = tested on: COLO 205 colon
HOP-92 NSCLC = tested on: HOP-92 NSCLC
A498 renal = tested on: A498 renal
HT29 colon = tested on: HT29 colon
U251 CNS = tested on: U251 CNS
OVCAR-5 ovarian = tested on: OVCAR-5 ovarian
HCT-15 colon = tested on: HCT-15 colon
HCT-116 colon = tested on: HCT-116 colon
RXF 393 renal = tested on: RXF 393 renal
BT-549 breast = tested on: BT-549 breast
MOLT-4 leukemia = tested on: MOLT-4 leukemia
CCRF-CEM leukemia = tested on: CCRF-CEM leukemia
NCI-H522 lung = tested on: NCI-H522 lung
SF-539 CNS = tested on: SF-539 CNS
T-47D breast = tested on: T-47D breast
NCI/ADR-RES ovarian = tested on: NCI/ADR-RES ovarian
SN12C renal = tested on: SN12C renal
786-0 renal = tested on: 786-0 renal
HL-60(TB) leukemia = tested on: HL-60(TB) leukemia
LOX IMVI melanoma = tested on: LOX IMVI melanoma
CAKI-1 renal = tested on: CAKI-1 renal
M14 melanoma = tested on: M14 melanoma
A549 NSCLC = tested on: A549 NSCLC
SNB-19 CNS = tested on: SNB-19 CNS
NCI-H23 lung = tested on: NCI-H23 lung
RPMI-8226 leukemia = tested on: RPMI-8226 leukemia
SNB-75 CNS = tested on: SNB-75 CNS
K-562 leukemia = tested on: K-562 leukemia
MDA-MB-435 = tested on: MDA-MB-435
MCF7 breast = tested on: MCF7 breast
SF-295 CNS = tested on: SF-295 CNS
OVCAR-3 ovarian = tested on: OVCAR-3 ovarian
SF-268 CNS = tested on: SF-268 CNS
MALME-3M melanoma = tested on: MALME-3M melanoma
HCC-2998 colon = tested on: HCC-2998 colon
NCI-H226 lung = tested on: NCI-H226 lung
HOP-62 NSCLC = tested on: HOP-62 NSCLC
HS 578T breast = tested on: HS 578T breast
UO-31 renal = tested on: UO-31 renal
TK-10 renal = tested on: TK-10 renal
NCI-H460 lung = tested on: NCI-H460 lung
UACC-257 melanoma = tested on: UACC-257 melanoma
DU-145 prostate = tested on: DU-145 prostate
EKVX NSCLC = tested on: EKVX NSCLC
UACC-62 melanoma = tested on: UACC-62 melanoma
PC-3 prostate = tested on: PC-3 prostate

CN(C)c1nc(NCCNS(=O)(=O)c2ccc(C(=O)/C=C/c3ccc(C(F)(F)F)cc3)cc2)nc(Nc2ccc(F)cc2)n1
GI50 (ACHN renal): 5.08 µM | TGI (ACHN renal): 17.4 µM | GI50 (SK-OV-3 ovarian): 13.7 µM | TGI (SK-OV-3 ovarian): 27.8 µM | GI50 (OVCAR-8 ovarian): 12.3 µM | TGI (OVCAR-8 ovarian): 30.6 µM | GI50 (SK-MEL-5 melanoma): 10.4 µM | TGI (SK-MEL-5 melanoma): 22.2 µM | GI50 (MDA-MB-468 breast): 4.53 µM | TGI (MDA-MB-468 breast): 17 µM | GI50 (OVCAR-4 ovarian): 8.78 µM | TGI (OVCAR-4 ovarian): 23.1 µM | GI50 (KM12 colon): 2.38 µM | TGI (KM12 colon): 6 µM | GI50 (MDA-MB-231 breast): 8.38 µM | TGI (MDA-MB-231 breast): 20.8 µM | GI50 (SK-MEL-28 melanoma): 10.4 µM | TGI (SK-MEL-28 melanoma): 22.2 µM | GI50 (IGROV1 ovarian): 12.3 µM | TGI (IGROV1 ovarian): 24.9 µM | GI50 (SK-MEL-2 melanoma): 9.45 µM | TGI (SK-MEL-2 melanoma): 22.3 µM | GI50 (SW-620 colon): 2.24 µM | TGI (SW-620 colon): 5.06 µM | GI50 (COLO 205 colon): 11.2 µM | TGI (COLO 205 colon): 24.8 µM | GI50 (HOP-92 NSCLC): 6.15 µM | TGI (HOP-92 NSCLC): 20.7 µM | GI50 (A498 renal): 13 µM | TGI (A498 renal): 26.2 µM | GI50 (HT29 colon): 1.91 µM | TGI (HT29 colon): 3.95 µM | GI50 (U251 CNS): 3.42 µM | TGI (U251 CNS): 13 µM | GI50 (OVCAR-5 ovarian): 12 µM | TGI (OVCAR-5 ovarian): 24.4 µM | GI50 (HCT-15 colon): 3.22 µM | TGI (HCT-15 colon): 11.9 µM | GI50 (HCT-116 colon): 1.68 µM | TGI (HCT-116 colon): 3.13 µM | GI50 (RXF 393 renal): 3.7 µM | TGI (RXF 393 renal): 16 µM | GI50 (BT-549 breast): 12.7 µM | TGI (BT-549 breast): 25.6 µM | GI50 (MOLT-4 leukemia): 2.9 µM | TGI (MOLT-4 leukemia): 9.61 µM | GI50 (CCRF-CEM leukemia): 3.79 µM | TGI (CCRF-CEM leukemia): > 100 µM | GI50 (NCI-H522 lung): 11.2 µM | TGI (NCI-H522 lung): 24.7 µM | GI50 (SF-539 CNS): 10.7 µM | TGI (SF-539 CNS): 22.5 µM | GI50 (T-47D breast): 5.16 µM | TGI (T-47D breast): 19.6 µM | GI50 (NCI/ADR-RES ovarian): 10.7 µM | TGI (NCI/ADR-RES ovarian): 23.7 µM | GI50 (SN12C renal): 6.36 µM | TGI (SN12C renal): 19.9 µM | GI50 (786-0 renal): 10.6 µM | TGI (786-0 renal): 22.7 µM | GI50 (HL-60(TB) leukemia): 3.82 µM | TGI (HL-60(TB) leukemia): 30 µM | GI50 (LOX IMVI melanoma): 1.86 µM | TGI (LOX IMVI melanoma): 3.84 µM | GI50 (CAKI-1 renal): 6.46 µM | TGI (CAKI-1 renal): 19.7 µM | GI50 (M14 melanoma): 3.39 µM | TGI (M14 melanoma): 12.9 µM | GI50 (A549 NSCLC): 10 µM | TGI (A549 NSCLC): 25.4 µM | GI50 (SNB-19 CNS): 12 µM | TGI (SNB-19 CNS): 24.3 µM | GI50 (NCI-H23 lung): 11.2 µM | TGI (NCI-H23 lung): 24.2 µM | GI50 (RPMI-8226 leukemia): 3 µM | TGI (RPMI-8226 leukemia): > 100 µM | GI50 (SNB-75 CNS): 8.41 µM | TGI (SNB-75 CNS): 22.7 µM | GI50 (K-562 leukemia): 2.98 µM | TGI (K-562 leukemia): 30.4 µM | GI50 (MDA-MB-435): 2.86 µM | TGI (MDA-MB-435): 8.49 µM | GI50 (MCF7 breast): 1.7 µM | TGI (MCF7 breast): 3.56 µM | GI50 (SF-295 CNS): 11.3 µM | TGI (SF-295 CNS): 23.5 µM | GI50 (OVCAR-3 ovarian): 2.04 µM | TGI (OVCAR-3 ovarian): 5.61 µM | GI50 (SF-268 CNS): 7.71 µM | TGI (SF-268 CNS): 22.5 µM | GI50 (MALME-3M melanoma): 14.2 µM | TGI (MALME-3M melanoma): 27.5 µM | GI50 (HCC-2998 colon): 1.77 µM | TGI (HCC-2998 colon): 3.61 µM | GI50 (NCI-H226 lung): 7.82 µM | TGI (NCI-H226 lung): 24.7 µM | GI50 (HOP-62 NSCLC): 13.6 µM | TGI (HOP-62 NSCLC): 27.7 µM | GI50 (HS 578T breast): 12.7 µM | TGI (HS 578T breast): 49.5 µM | GI50 (UO-31 renal): 6.41 µM | TGI (UO-31 renal): 19.9 µM | GI50 (TK-10 renal): 17.4 µM | TGI (TK-10 renal): 32 µM | GI50 (NCI-H460 lung): 4.09 µM | TGI (NCI-H460 lung): 14.9 µM | GI50 (UACC-257 melanoma): 11 µM | TGI (UACC-257 melanoma): 25 µM | GI50 (DU-145 prostate): 11.2 µM | TGI (DU-145 prostate): 24 µM | GI50 (EKVX NSCLC): 4.2 µM | TGI (EKVX NSCLC): 15.7 µM | GI50 (UACC-62 melanoma): 6.24 µM | TGI (UACC-62 melanoma): 19.4 µM | GI50 (PC-3 prostate): 4.15 µM | TGI (PC-3 prostate): 18.2 µM
